Results reported in PubChem BioAssay (NCI).
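Dose response: 5 concentrations. Exposure: 48 h. Format: 96-well plates. Endpoint: linear interpolation; highest concentration if not reached. Definition used: TGI = concentration required for complete inhibition of growth.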

Experiments:
Test in all cases: NCI anticancer screen, dose series, 48 h
OVCAR-5 ovarian = system: OVCAR-5 ovarian
UACC-257 melanoma = system: UACC-257 melanoma
IGROV1 ovarian = system: IGROV1 ovarian
CAKI-1 renal = system: CAKI-1 renal
CCRF-CEM leukemia = system: CCRF-CEM leukemia
NCI-H522 lung = system: NCI-H522 lung
MDA-MB-231 breast = system: MDA-MB-231 breast
NCI-H23 lung = system: NCI-H23 lung
SK-MEL-2 melanoma = system: SK-MEL-2 melanoma
COLO 205 colon = system: COLO 205 colon
DU-145 prostate = system: DU-145 prostate
UACC-62 melanoma = system: UACC-62 melanoma

Question: With `Brc1ccc2c(c1)-c1nc3c(cc1CC2)CCc1ccc(Br)cc1-3` as the compound, how does the TGI (OVCAR-5 ovarian) read?
Answer: > 100 µM

Question: And the TGI (UACC-257 melanoma)?
Answer: > 100 µM

Question: What about the TGI (IGROV1 ovarian) of the same compound?
Answer: > 100 µM

Question: And the TGI (CAKI-1 renal)?
Answer: > 100 µM

Question: What about the TGI (CCRF-CEM leukemia) of the same compound?
Answer: > 100 µM

Question: And the TGI (NCI-H522 lung)?
Answer: > 100 µM

Question: And the TGI (MDA-MB-231 breast)?
Answer: > 100 µM

Question: And the TGI (NCI-H23 lung)?
Answer: > 100 µM

Question: What about the TGI (SK-MEL-2 melanoma) of the same compound?
Answer: > 100 µM

Question: And the TGI (COLO 205 colon)?
Answer: > 100 µM

Question: `Cc1cn(C2CC(OC(c3ccccc3)(c3ccccc3)c3ccccc3)C(COC(c3ccccc3)(c3ccccc3)c3ccccc3)O2)c(=O)[nH]c1=O` (centres undefined) was tested. Which TGI (OVCAR-5 ovarian) did it give?
Answer: > 100 µM

Question: And the TGI (UACC-257 melanoma)?
Answer: > 100 µM

Question: And the TGI (IGROV1 ovarian)?
Answer: > 100 µM

Question: And the TGI (CAKI-1 renal)?
Answer: > 100 µM

Question: And the TGI (DU-145 prostate)?
Answer: > 100 µM

Question: And the TGI (CCRF-CEM leukemia)?
Answer: > 100 µM

Question: What about the TGI (MDA-MB-231 breast) of the same compound?
Answer: > 100 µM

Question: And the TGI (UACC-62 melanoma)?
Answer: > 100 µM

Question: And the TGI (SK-MEL-2 melanoma)?
Answer: > 100 µM

Question: And the TGI (COLO 205 colon)?
Answer: > 100 µM

Question: How did the TGI (OVCAR-5 ovarian) turn out when `CCCC[C@@H]1CCN2C[C@@H](O)[C@@H](O)[C@H]2[C@@H]1O` was run?
Answer: > 100 µM

Question: What about the TGI (UACC-257 melanoma) of the same compound?
Answer: > 100 µM

Question: And the TGI (IGROV1 ovarian)?
Answer: > 100 µM

Question: And the TGI (CAKI-1 renal)?
Answer: > 100 µM

Question: And the TGI (CCRF-CEM leukemia)?
Answer: > 100 µM

Question: And the TGI (NCI-H522 lung)?
Answer: > 100 µM

Question: What about the TGI (MDA-MB-231 breast) of the same compound?
Answer: > 100 µM

Question: And the TGI (NCI-H23 lung)?
Answer: > 100 µM

Question: What about the TGI (UACC-62 melanoma) of the same compound?
Answer: > 100 µM

Question: And the TGI (SK-MEL-2 melanoma)?
Answer: > 100 µM

Question: What about the TGI (COLO 205 colon) of the same compound?
Answer: > 100 µM

Question: `CCOC(=O)c1ccc(C(=O)/C(C(=O)OC(C)(C)C)=C2\CCCN2C)n1C` was tested. Which TGI (OVCAR-5 ovarian) did it give?
Answer: > 100 µM

Question: What about the TGI (UACC-257 melanoma) of the same compound?
Answer: > 100 µM

Question: And the TGI (IGROV1 ovarian)?
Answer: > 100 µM

Question: And the TGI (CAKI-1 renal)?
Answer: > 100 µM

Question: And the TGI (DU-145 prostate)?
Answer: > 100 µM

Question: And the TGI (CCRF-CEM leukemia)?
Answer: > 100 µM

Question: And the TGI (MDA-MB-231 breast)?
Answer: > 100 µM

Question: What about the TGI (NCI-H23 lung) of the same compound?
Answer: > 100 µM

Question: What about the TGI (UACC-62 melanoma) of the same compound?
Answer: > 100 µM

Question: What about the TGI (SK-MEL-2 melanoma) of the same compound?
Answer: > 100 µM

Question: And the TGI (COLO 205 colon)?
Answer: > 100 µM

Question: What does the source list for `O=C(CN=C(CN(c1ccccc1)c1ccccc1)Oc1c(Cl)cc(Cl)cc1Cl)n1cnc2ccccc21`?
Answer: TGI (OVCAR-5 ovarian): > 100 µM; TGI (UACC-257 melanoma): > 100 µM; TGI (IGROV1 ovarian): > 100 µM; TGI (DU-145 prostate): > 100 µM; TGI (CCRF-CEM leukemia): > 100 µM; TGI (NCI-H522 lung): > 100 µM; TGI (MDA-MB-231 breast): > 100 µM; TGI (NCI-H23 lung): > 100 µM; TGI (UACC-62 melanoma): > 100 µM; TGI (COLO 205 colon): > 100 µM

Question: `COc1cc(CCCOC2OC(COC3OCC(O)C(O)C3O)C(O)C(O)C2O)cc2cc(-c3ccc4c(c3)OCO4)oc12` (centres undefined) was tested. Which TGI (OVCAR-5 ovarian) did it give?
Answer: > 175 µM

Question: What about the TGI (UACC-257 melanoma) of the same compound?
Answer: > 175 µM

Question: And the TGI (IGROV1 ovarian)?
Answer: > 175 µM

Question: And the TGI (CAKI-1 renal)?
Answer: > 175 µM

Question: And the TGI (CCRF-CEM leukemia)?
Answer: > 69.7 µM

Question: What about the TGI (NCI-H522 lung) of the same compound?
Answer: > 175 µM

Question: And the TGI (NCI-H23 lung)?
Answer: > 175 µM

Question: And the TGI (UACC-62 melanoma)?
Answer: > 175 µM

Question: What about the TGI (SK-MEL-2 melanoma) of the same compound?
Answer: > 175 µM

Question: And the TGI (COLO 205 colon)?
Answer: > 175 µM

Question: Which TGI (OVCAR-5 ovarian) does the source give for `CCN(CC)C(=S)SS(=O)(=O)c1ccc(C)cc1` here?
Answer: > 100 µM

Question: And the TGI (UACC-257 melanoma)?
Answer: 46.3 µM

Question: And the TGI (CAKI-1 renal)?
Answer: 37.3 µM

Question: What about the TGI (DU-145 prostate) of the same compound?
Answer: > 100 µM

Question: And the TGI (MDA-MB-231 breast)?
Answer: > 100 µM

Question: What about the TGI (NCI-H23 lung) of the same compound?
Answer: > 100 µM

Question: And the TGI (UACC-62 melanoma)?
Answer: > 100 µM

Question: What about the TGI (SK-MEL-2 melanoma) of the same compound?
Answer: > 100 µM

Question: And the TGI (COLO 205 colon)?
Answer: 63.7 µM

Question: With `C[C@@H]1C(=O)CC2(O)[C@@]13C[C@@H](OC(=O)[C@@H]3O)[C@@H](C)[C@@]21COC1=O` (some centres undefined) as the compound, how does the TGI (OVCAR-5 ovarian) read?
Answer: > 100 µM

Question: What about the TGI (UACC-257 melanoma) of the same compound?
Answer: > 100 µM

Question: And the TGI (IGROV1 ovarian)?
Answer: > 100 µM

Question: And the TGI (DU-145 prostate)?
Answer: > 100 µM

Question: What about the TGI (CCRF-CEM leukemia) of the same compound?
Answer: > 100 µM

Question: What about the TGI (NCI-H522 lung) of the same compound?
Answer: > 100 µM

Question: What about the TGI (MDA-MB-231 breast) of the same compound?
Answer: > 100 µM

Question: What about the TGI (NCI-H23 lung) of the same compound?
Answer: > 100 µM

Question: And the TGI (UACC-62 melanoma)?
Answer: > 100 µM

Question: What about the TGI (SK-MEL-2 melanoma) of the same compound?
Answer: > 100 µM

Question: And the TGI (COLO 205 colon)?
Answer: > 100 µM

Question: For `O=c1cc(-c2ccccc2F)[nH]c2cc3c(cc12)OCO3`, which TGI (OVCAR-5 ovarian) is on record?
Answer: > 100 µM

Question: And the TGI (UACC-257 melanoma)?
Answer: > 77.5 µM

Question: What about the TGI (IGROV1 ovarian) of the same compound?
Answer: > 100 µM

Question: What about the TGI (DU-145 prostate) of the same compound?
Answer: 0.48 µM

Question: And the TGI (CCRF-CEM leukemia)?
Answer: > 17.7 µM

Question: And the TGI (NCI-H522 lung)?
Answer: 0.238 µM

Question: What about the TGI (MDA-MB-231 breast) of the same compound?
Answer: 3.34 µM

Question: What about the TGI (NCI-H23 lung) of the same compound?
Answer: 6.8 µM

Question: And the TGI (UACC-62 melanoma)?
Answer: > 100 µM

Question: What about the TGI (SK-MEL-2 melanoma) of the same compound?
Answer: > 100 µM

Question: And the TGI (COLO 205 colon)?
Answer: 0.281 µM

Question: `CC12CCC(C/C1=N\NC(N)=O)C2(C)C` (centres undefined) was tested. Which TGI (OVCAR-5 ovarian) did it give?
Answer: > 100 µM

Question: And the TGI (UACC-257 melanoma)?
Answer: > 100 µM

Question: What about the TGI (IGROV1 ovarian) of the same compound?
Answer: > 100 µM

Question: And the TGI (CAKI-1 renal)?
Answer: > 100 µM

Question: And the TGI (DU-145 prostate)?
Answer: > 100 µM

Question: And the TGI (CCRF-CEM leukemia)?
Answer: > 100 µM

Question: What about the TGI (NCI-H522 lung) of the same compound?
Answer: > 100 µM

Question: What about the TGI (NCI-H23 lung) of the same compound?
Answer: > 100 µM

Question: And the TGI (UACC-62 melanoma)?
Answer: > 100 µM

Question: What about the TGI (SK-MEL-2 melanoma) of the same compound?
Answer: > 100 µM

Question: What about the TGI (COLO 205 colon) of the same compound?
Answer: > 100 µM
